Source: patent US5614520A, “2-arylthiazole derivatives and pharmaceutical composition thereof” (priority 1990, dated 1997)
Where two headings read alike, the source gives them in different places.

Columns and labels:
serum uric acid = test: Determination of oral administration: lowering of serum uric acid in mice; assay type: in vivo, ICR male mice; settings: Mus musculus, read-out: Activity of lowering uric acid
Protocol: Test compounds suspended in a 5% gum arabic solution was forcibly administered by oral administration (compounds of Ex. No. of Table 2, dose: 1 mg/kg) to ICR male mice (age: about 7 weeks) (one group: 6 mice) by means of an oral probe. 2 hours after the administration, thoracotomy was conducted under etherization to collect blood from the heart, and serum was removed by a conventional process. The serum uric acid was measured by a biochemical automatic analyzer (Flexigem; Electro-Nucleonics, Inc.) by using a uric acid measurement kit (UA reagent; International Reagent) to determine the percentage of the lowering of uric acid. [formula]

xanthine oxidase = target: T1, xanthine oxidase (Bos taurus, UniProt P80457); test: In vitro determination of xanthine oxidase (XOD) inhibition; assay type: biochemical; settings: xanthine oxidase from butter milk, xanthine substrate, pH 7.4, 37° C.
T1 construct: purchased Sigma Chemical Company; host or cells: butter milk
T1 sequence (P80457 whole entry): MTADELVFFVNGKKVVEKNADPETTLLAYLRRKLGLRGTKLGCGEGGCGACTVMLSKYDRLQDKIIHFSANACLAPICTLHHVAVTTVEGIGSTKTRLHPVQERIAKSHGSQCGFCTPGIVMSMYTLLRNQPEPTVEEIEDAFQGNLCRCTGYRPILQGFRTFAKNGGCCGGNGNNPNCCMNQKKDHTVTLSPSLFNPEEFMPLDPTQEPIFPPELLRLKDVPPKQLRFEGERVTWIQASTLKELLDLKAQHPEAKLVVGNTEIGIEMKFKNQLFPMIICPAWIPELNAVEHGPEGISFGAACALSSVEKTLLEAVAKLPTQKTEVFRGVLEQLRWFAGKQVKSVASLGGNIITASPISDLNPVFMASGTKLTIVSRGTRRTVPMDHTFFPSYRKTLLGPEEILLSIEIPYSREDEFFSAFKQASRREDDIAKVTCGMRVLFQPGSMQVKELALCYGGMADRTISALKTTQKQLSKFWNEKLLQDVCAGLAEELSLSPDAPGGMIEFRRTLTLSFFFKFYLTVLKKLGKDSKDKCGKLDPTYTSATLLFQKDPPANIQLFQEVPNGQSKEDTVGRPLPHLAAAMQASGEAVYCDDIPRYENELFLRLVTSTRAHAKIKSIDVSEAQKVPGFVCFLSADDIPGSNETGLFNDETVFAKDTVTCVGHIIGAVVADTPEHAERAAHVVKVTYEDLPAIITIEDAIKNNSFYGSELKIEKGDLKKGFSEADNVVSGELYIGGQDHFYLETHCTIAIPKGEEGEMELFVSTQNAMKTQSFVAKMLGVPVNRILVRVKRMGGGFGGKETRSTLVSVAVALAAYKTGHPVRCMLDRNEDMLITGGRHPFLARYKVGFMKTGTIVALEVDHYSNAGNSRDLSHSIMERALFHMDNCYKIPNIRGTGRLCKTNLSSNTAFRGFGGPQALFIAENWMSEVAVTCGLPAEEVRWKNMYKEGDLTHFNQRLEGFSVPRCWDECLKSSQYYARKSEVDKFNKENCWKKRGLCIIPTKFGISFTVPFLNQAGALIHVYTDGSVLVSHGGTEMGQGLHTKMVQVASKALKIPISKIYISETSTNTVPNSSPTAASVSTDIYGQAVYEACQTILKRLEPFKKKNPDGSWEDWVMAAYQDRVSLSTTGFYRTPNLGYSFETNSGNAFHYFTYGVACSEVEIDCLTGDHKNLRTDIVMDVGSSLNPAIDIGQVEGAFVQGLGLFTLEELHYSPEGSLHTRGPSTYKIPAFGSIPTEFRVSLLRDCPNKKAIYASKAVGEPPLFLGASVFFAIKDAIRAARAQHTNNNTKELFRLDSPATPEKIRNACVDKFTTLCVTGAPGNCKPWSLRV
Protocol: (1) Preparation of test compounds:
Test compounds (compounds of Ex. No. listed in Table 1) were dissolved in dimethylsulfoxide and diluted with a 50 mM phosphate buffer to prepare aqueous solutions respectively having predetermined concentrations.
The inhibition rate was determined by the following equation: [formula]
The inhibition (%) was determined on each test compound prepared according to (1), and the IC50 value on the xanthine oxidase (XOD) inhibition was calculated from the value of inhibition.

[1] = ICR male mice, oral, 1 mg/kg, 2 hours after administration, serum

Oc1ncnc2[nH]ncc12 [allopurinol, reference compound]
inhibition in vivo at 1 mg/kg (serum uric acid; po, 2 h): 73%

CCN(CC)c1ccc(-c2nc(C)c(C(=O)O)s2)cc1[N+](=O)[O-] [Example 37]
IC50 (xanthine oxidase): 1.8 nM
inhibition in vivo at 1 mg/kg (serum uric acid; [1]): 74%

CCOCCOc1ccc(-c2nc(C)c(C(=O)O)s2)cc1[N+](=O)[O-] [Example 39, 2-(4-(2-Ethoxyethyloxy)-3-nitrophenyl)-4-methyl-5-thiazolecarboxylic acid]
IC50 (xanthine oxidase): 2.9 nM
inhibition in vivo at 1 mg/kg (serum uric acid; [1]): 82%

Cc1nc(-c2ccc(OCC(C)C)c(C#N)c2)sc1C(=O)O [Example 77, 2-(3-Cyano-4-isobutyloxyphenyl)-4-methyl-5-thiazolecarboxylic acid]
inhibition in vivo at 1 mg/kg (serum uric acid; po, 2 h): 95%

Cc1nc(-c2ccc(OCC(C)C)c([N+](=O)[O-])c2)sc1C(=O)OCC(C)C [Example 48, Isobutyl 2-(4-isobutyloxy-3-nitrophenyl)-4-methyl-5-thiazolecarboxylate]
inhibition in vivo at 1 mg/kg (serum uric acid; [1]): 88%

Cc1nc(-c2cc(Cl)c(OCCN3CCOCC3)c(Cl)c2)sc1C(=O)O [Example 72, 2-(3,5-Dichloro-4-(2-morpholinoethyloxy)phenyl)-4-methyl-5-thiazolecarboxylic acid]
IC50 (xanthine oxidase): 0.7 nM
inhibition in vivo at 1 mg/kg (serum uric acid; [1]): 48%

Cc1nc(-c2ccc([S+]([O-])c3ccc(Cl)cc3)c(Cl)c2)sc1C(=O)O (stereo not shown) [Example 62, 2-(3-chloro-4-(4'-chlorophenylsulfinyl)phenyl)-4-methyl-5thiazolecarboxylic acid]
IC50 (xanthine oxidase): 0.64 nM
inhibition in vivo at 1 mg/kg (serum uric acid; [1]): 35%

Cc1nc(-c2ccc(C(=O)N(C)c3ccc(Cl)cc3)cc2)sc1C(=O)O [Example 17, 2-(4-(N-(4-chlorophenyl)-N-methylcarbamoyl)phenyl)-4-methyl-5-thiazolecarboxylic acid]
IC50 (xanthine oxidase): 500 nM

Cc1nc(-c2ccc(N3CCCCC3)c(C#N)c2)sc1C(=O)O [Example 82, 2-(3-Cyano-4-piperidinophenyl)-4-methyl-5-thiazolecarboxylic acid]
IC50 (xanthine oxidase): 2.7 nM
inhibition in vivo at 1 mg/kg (serum uric acid; [1]): 93%

Cc1nc(-c2cccc(C(=O)O)c2)sc1C(=O)O [Example 13, 2-(3-carboxyphenyl)-4-methyl-5-thiazolecarboxylic acid]
IC50 (xanthine oxidase): 320 nM

Cc1nc(-c2cc(Cl)c(OC(C)C)c(Cl)c2)sc1C(=O)O [Example 68, 2-(3,5-dichloro-4-isopropoxyphenyl)-4-methyl-5-thiazolecarboxylic acid]
IC50 (xanthine oxidase): 2.2 nM
inhibition in vivo at 1 mg/kg (serum uric acid; [1]): 13%

Cc1nc(-c2ccc(OCc3ccc(F)cc3)cc2)sc1C(=O)O [Example 10, 2-(4-(4-Fluorobenzyloxy)phenyl)-4-methyl-5-thiazolecarboxylic acid]
IC50 (xanthine oxidase): 31 nM

Cc1nc(-c2ccc(OCC(C)(C)C)c(I)c2)sc1C(=O)O [Example 85, 2-(3-iodo-4-neopentyloxyphenyl)-4-methyl-5-thiazolecarboxylic acid]
IC50 (xanthine oxidase): 0.12 nM
inhibition in vivo at 1 mg/kg (serum uric acid; [1]): 77%

Cc1nc(-c2ccc(Sc3ccc(Cl)cc3)c([N+](=O)[O-])c2)sc1C(=O)O [Example 36, 2-(4-(4-chlrophenyl)thio-3-nitrophenyl)-4-methyl-5thiazolecarboxylic acid]
IC50 (xanthine oxidase): 0.02 nM
inhibition in vivo at 1 mg/kg (serum uric acid; [1]): 14%

Cc1nc(-c2ccc(N3CCCCC3)c(Cl)c2)sc1C(=O)O [Example 60, 2-(3-Chloro-4-piperidinophenyl)-4-methyl-5-thiazolecarboxylic acid]
IC50 (xanthine oxidase): 0.24 nM
inhibition in vivo at 1 mg/kg (serum uric acid; [1]): 55%

Cc1nc(-c2ccc(OCC(C)(C)C)c(C#N)c2)sc1C(=O)O [Example 78, 2-(3-Cyano-4-neopentyloxyphenyl)-4-methyl-5-thiazolecarboxylic acid]
IC50 (xanthine oxidase): 1.9 nM
inhibition in vivo at 1 mg/kg (serum uric acid; [1]): 91%

CC(=O)c1cc(-c2nc(C)c(C(=O)O)s2)ccc1O [Example 25, 2-(3-Acetyl-4-hydroxyphenyl) -4-methyl-5-thiazolecarboxylic acid]
IC50 (xanthine oxidase): 300 nM

Cc1nc(-c2ccc(OC(C)C)c([N+](=O)[O-])c2)sc1C(=O)OC(C)C [Example 47, isopropyl 2-(4-isopropoxy-3-nitrophenyl)-4-methyl-5-thiazolecarboxylate]
inhibition in vivo at 1 mg/kg (serum uric acid; [1]): 92%

Cc1nc(-c2ccc(OCC(C)C)c(C(F)(F)F)c2)sc1C(=O)O [Example 83, 2-(4-isobutyloxy-3-trifluomethylphenyl)-4-methyl-5-thiazolecarboxylic acid]
IC50 (xanthine oxidase): 1.1 nM
inhibition in vivo at 1 mg/kg (serum uric acid; [1]): 86%

CCOCCOc1ccc(-c2nc(C)c(C(=O)O)s2)cc1Cl [Example 55, 2-(3-Chloro-4-(2-ethoxyethyloxy)phenyl)-4-methyl-5-thiazolecarboxylic acid]
IC50 (xanthine oxidase): 7 nM
inhibition in vivo at 1 mg/kg (serum uric acid; [1]): 45%

Cc1nc(-c2ccc(OCCCC3CCCCC3)cc2)sc1C(=O)O [Example 8, 2-(4-(3-Cyclohexylpropyloxy)phenyl)-4-methyl-5-thiazolecarboxylic acid]
IC50 (xanthine oxidase): 3.2 nM
inhibition in vivo at 1 mg/kg (serum uric acid; [1]): 28%

Cc1nc(-c2cc(C(C)(C)C)c(O)c(C(C)(C)C)c2)sc1C(=O)O [Example 29, 2-(3,5-Di-t-butyl-4-hydroxyphenyl)-4-methyl-5-thiazolecarboxylic acid]
IC50 (xanthine oxidase): 65 nM

Cc1nc(-c2ccc(OC(C)C)cc2)sc1C(=O)O [Example 2, 2-(4-isopropoxyphenyl)-4-methyl-5-thiazolecarboxylic acid]
IC50 (xanthine oxidase): 28 nM

COc1nc(-c2ccc(OC(C)C)cc2)sc1C(=O)O [Example 23, 2-(4-isopropoxyphenyl)-4-methoxy-5-thiazolecarboxylic acid]
IC50 (xanthine oxidase): 130 nM

Cc1nc(-c2ccc(OC(C)C)c(C#N)c2)sc1C(=O)O [Example 76, 2-(3-cyano-4-isopropoxyphenyl)-4-methyl-5-thiazolecarboxylic acid]
inhibition in vivo at 1 mg/kg (serum uric acid; po, 2 h): 86%

Cc1nc(-c2ccc(OCc3ccc(Cl)cc3)cc2)sc1C(=O)O [Example 9, 2-(4-(4-Chlorobenzyloxy)phenyl)-4-methyl-5-thiazolecarboxylic acid]
IC50 (xanthine oxidase): 17 nM

Cc1cc(-c2nc(C)c(C(=O)O)s2)cc(C)c1O [Example 30, 2-(3,5-Dimethyl-4-hydroxyphenyl)-4-methyl-5-thiazolecarboxylic acid]
IC50 (xanthine oxidase): 42 nM

Cc1nc(-c2ccc([N+](=O)[O-])cc2)sc1C(=O)O [Example 4, 4-methyl-2-(4-nitrophenyl)-5-thiazolecarboxylic acid]
IC50 (xanthine oxidase): 900 nM

Cc1nc(-c2cccc([N+](=O)[O-])c2)sc1C(=O)O [Example 3, 4-methyl-2-(3-nitrophenyl)-5-thiazolecarboxylic acid]
IC50 (xanthine oxidase): 14 nM

Cc1nc(-c2ccc(C(=O)Nc3ccc(Cl)cc3)cc2)sc1C(=O)O [Example 16, 2-(4-(4-Chlorophenylcarbamoyl)phenyl)-4-methyl-5-thiazolecarboxylic acid]
inhibition in vivo at 1 mg/kg (serum uric acid; po, 2 h): 21%

Cc1nc(-c2cccc(C(=O)c3ccccc3)c2)sc1C(=O)O [Example 19, 2-(3-Benzoylphenyl)-4-methyl-5-thiazolecarboxylic acid]
IC50 (xanthine oxidase): 12 nM

Cc1nc(-c2cc([N+](=O)[O-])ccc2Cl)sc1C(=O)O [Example 24, 2-(2-Chloro-5-nitrophenyl)-4-methyl-5-thiazolecarboxylic acid]
IC50 (xanthine oxidase): 67 nM

O=C(O)c1sc(-c2cccc(Cl)c2)nc1O [Example 21, 2-(3-chlorophenyl)-4-hydroxy-5-thiazolecarboxylic acid]
IC50 (xanthine oxidase): 720 nM
